Measurements: ChEMBL document CHEMBL3507680, “University of Dundee, Gates Library screen for HepG2 cell viability”

Assay: Human HepG2 cell viability assay in 384 well format
Format: toxicity, cell-based
Set-up: dose 125 nL, time 70.5 hour; cytotoxicity at 70.5 h: concentration not given beside the values
Conditions: HepG2 cells, read-out: Inhibition

Row | Compound | cytotoxicity at 70.5 h
1 | CN(C)CCN1CCCC12CCN(Cc1nccn1C)CC2 | -0.128%
2 | CN1C(=O)C2(CCN(S(=O)(=O)C3CC3)CC2)c2ccccc21 | -2.07%
3 | CC(Cn1ccnc1)NC(=O)NCCc1ccc2c(c1)OCCO2 (configuration not stated) | 13.3%
4 | CC1CCCN(C(=O)c2cccc(CS(C)(=O)=O)c2)C1 (configuration not stated) | 7.89%
5 | Cc1ccc(C(=O)N2CCC(Oc3cccc(C)c3C)CC2)c(=O)[nH]1 | -4.54%
6 | O=C(CN1CCCCC1C1OCCO1)Nc1ccc(F)c(F)c1 (configuration not stated) | -2.55%
7 | COc1cccc(-c2n[nH]cc2CNC2CCN(C3CC3)CC2)c1 | 29.3%
8 | Cn1c(CCC(=O)N2CCC3(CCCO3)CC2)nc2cccnc21 | -9.63%
9 | CCCOc1ccc2ccccc2c1CN1CC[C@@]2(O)CCNC[C@H]2C1 | -4.34%
10 | CNC(=O)C1(Cc2cc(C(C)C)no2)CCN(Cc2cccnc2)C1 (configuration not stated) | -5.78%
11 | COCc1noc(CN2CCCCC2CCc2cccs2)n1 (configuration not stated) | -14.8%
12 | CC(C)Cn1cnnc1C1CCCN1C(=O)OC(C)(C)C (configuration not stated) | -0.156%
13 | Cc1nc(C2CCN(C(=O)COC(C)C)CC2)cc(N2CCOCC2)n1 | -8.64%
14 | CC(C)C(Sc1nnnn1-c1ccccc1)C(=O)NCc1cccnc1 (configuration not stated) | -2.05%
15 | NC(=O)c1cc(C2CCCN(CCOCC3CC3)C2)n[nH]1 (configuration not stated) | -1.45%
16 | O=C1C[C@H]2CC[C@@H](CN1)N2c1cc(-c2ccccc2F)nc2ccnn12 | -4%
17 | CCCN1CCC(NC(=O)Nc2ccc(OC)c(OC)c2)CC1 | -1.26%
18 | CC(C)(C)c1ncc(CNc2ccccc2SCCC(N)=O)s1 | 3.11%
19 | CC(C)C(=O)N1CC[C@H]2N(C)CC[C@@]2(C(=O)N2CCCC2)CC1 | -7.87%
20 | CCn1c(-c2ccccc2)nn(CC(=O)NCCc2ccc(C)o2)c1=O | -0.836%
21 | CCN(c1ccc(C(=O)N2CCC(C)CC2)cc1)S(=O)(=O)CC | 2.02%

Row | Compound | cytotoxicity at 70.5 h
22 | Cc1cc(C)c(CNC(=O)N2CCCN(C(=O)C(C)C)CC2)c(C)c1 | 15.9%
23 | c1csc(N2CCCN(c3ncnc4sccc34)CC2)n1 | 10.8%
24 | Cc1ccc(OCC(C)NS(=O)(=O)Cc2ccon2)cc1 (configuration not stated) | -9.91%
25 | CC(C)Oc1ncccc1CNC(=O)N1CCC1 | -7.74%
26 | Cc1cc(OC(F)F)c(C(=O)N2CCC(CN(C)C)CC2)s1 | -5.68%
27 | CN(C(=O)c1cnc(N2CCOCC2)nc1)C1Cc2ccccc2C1 | -12.4%
28 | COCC(=O)N1CCCC1c1nccnc1Nc1nc(C)cs1 (configuration not stated) | -7.14%
29 | Cc1cccc(-c2nc(C)nn2CN2CCN(c3ncccn3)CC2)c1 | -5.76%
30 | O=C(NCc1ccc(-n2cncn2)nc1)c1cc[nH]n1 | -4.63%
31 | COc1cccc(C(=O)N2CCc3nc(C4CCCN4)ncc3C2)c1 (configuration not stated) | -1.65%
32 | Cc1csc2nc3n(c(=O)c12)CCN(Cc1c[nH]cn1)CC3 | 0.274%
33 | COc1ccc(-c2cnc(NC(C)=O)[nH]2)cc1 | 10.1%
34 | CC(C)n1nnc(CC(=O)NCC2(c3cccc(F)c3)CCCC2)n1 | 15.1%
35 | CC(C)CS(=O)(=O)CC(=O)NC(C)(C)c1cccc(F)c1 | 6.38%
36 | COc1ccc(-n2ccnc2-c2cnc(C(C)C)nc2)cc1C(=O)O | -3.39%
37 | Cn1cc(CN2CCC3(CC2)CCN(C(=O)c2cscn2)C3)cn1 | -3.37%
38 | CC(=O)N(Cc1noc(C)n1)C1CCN(Cc2c(C)noc2C)C1 (configuration not stated) | -0.736%
39 | CC(C)NC(=O)CCNC(=O)Nc1ccc(-n2cncn2)c(F)c1 | -11.5%
40 | Cn1[nH]c(CNc2cccc(Cl)c2)nc1=O | -0.326%
41 | CCCN(CCO)C(=O)c1cc(COc2ccc3c(c2)CCCC3)on1 | 11.2%
42 | CC(C)N1CCOCC2(CN(Cc3ccccn3)CCO2)C1 (configuration not stated) | -2.31%

Row | Compound | cytotoxicity at 70.5 h
43 | COC(=O)c1ccc(-c2cc(C(F)(F)F)cc(N(C)C)n2)cc1 | -6.66%
44 | Cc1n[nH]c(-c2ccc(NC(=O)C(C)N3CCN(C)CC3)cc2)n1 (configuration not stated) | 2.06%
45 | CCN(CC)C(=O)Cn1c(=O)n(Cc2ccco2)c2ncccc21 | -3.1%
46 | CC(C)Oc1cccc(C(O)CNC(=O)Nc2cccs2)c1 (configuration not stated) | -4.72%
47 | Fc1cccnc1O[C@@H]1CC[C@H]2[C@H]1OCCN2Cc1nccs1 | -2.76%
48 | N#Cc1cccnc1N1CCN(S(=O)(=O)NCc2ccccc2)CC1 | -18.9%
49 | O=C(c1cccc(Cn2ccnc2)c1)N1CCCC(n2cccn2)C1 (configuration not stated) | 5.77%
50 | Nc1nc(C(=O)NCC2CCC3(CCNCC3)CO2)cs1 (configuration not stated) | -13.9%
51 | CC(C)(C)CN1CCCC2(CCN(C(=O)c3cn[nH]c3)C2)C1 (configuration not stated) | -9.2%
52 | Cc1nc(CNCC2CCCN2c2cccnn2)oc1C (configuration not stated) | -4.96%
53 | CC(C)CN1CCC2(C=C(C(=O)N3CCCC3)c3ccccc32)CC1 | -15.8%
54 | O=C(Cn1ccc2ccc(Br)cc21)NCc1ccc(C(=O)O)cc1 | -6.34%
55 | CCC(=O)N1CCC(c2cncc(Oc3cccnc3)n2)CC1 | -5.07%
56 | Cc1ccc(C(=O)N2C[C@@H]3CCCO[C@@H]3[C@H](N3CCOCC3)C2)cn1 | 2.11%
57 | O=S(=O)(C1CC1)N1CCc2ncnc(N3CCOCC3)c2CC1 | -7.75%
58 | COC1CCN(C(=O)COC(C)=O)CC(=O)N(C)c2ccccc21 (configuration not stated) | -3.04%
59 | CNC(=O)Cc1noc(Cc2ccc3c(c2)CCCC3)n1 | 12.5%
60 | Cc1cnn(CC2CCCN2CC(=O)Nc2nncs2)c1 (configuration not stated) | -5.64%
61 | O=C(CCNCc1cccc(O)c1)N1CCc2sccc2C1 | -7.91%
62 | CN(C)CCn1c2c(ccc1=O)CCN(Cc1cnn(C)c1)CC2 | 2.16%
63 | CCn1cnnc1C1CCN(C(=O)c2ccc(Cl)s2)CC1 | -15%

Row | Compound | cytotoxicity at 70.5 h
64 | Cc1nn(C)c(Cl)c1C1CCCN1Cc1nnc(C2CC2)n1C (configuration not stated) | -0.0718%
65 | COc1ccc(-c2cn([C@H](CO)CC(C)C)nn2)cn1 | -4.51%
66 | CC(NCc1cccc(S(=O)(=O)N(C)C)c1)c1cccnc1 (configuration not stated) | -3.39%
67 | O=C(NCC1CC1)c1n[nH]c2c1CNCC2 | -10.7%
68 | Cc1nc(CN2CCOCC2c2[nH]ncc2C)cs1 (configuration not stated) | 1.5%
69 | CCOc1ccccc1C1CCCN1 (configuration not stated) | 1.15%
70 | C=C(C)COc1cccc(C(=O)N(CC)Cc2noc(C)n2)c1 | -3.04%
71 | Cc1cnn(-c2ccc(C(=O)N3CCCC(n4ccnc4C)C3)cc2)c1 (configuration not stated) | -4.35%
72 | CCc1nccn1-c1cncc(C2CCCN2Cc2ccccc2)n1 (configuration not stated) | -5.36%
73 | CCOCc1ncn2c1CN(C(=O)Nc1ccc(CC)cc1)CC2 | 14.1%
74 | OC1(CNCCCN2CCc3ccccc32)CCNC1 (configuration not stated) | 22.2%
75 | CN1C(=O)C2(NC(=O)c3ccccc3O2)c2ccccc21 (configuration not stated) | -16.5%
76 | CN(Cc1cc2n(n1)CCNC2)Cc1n[nH]c2c1CCC2 | -10.9%
77 | OC[C@H]1CCN(Cc2ccc3ccccc3n2)C[C@@H]1O | -4.84%
78 | Cc1nn(C)c(C)c1OCC(=O)NCC(O)c1ccccc1F (configuration not stated) | 0.771%
79 | Cn1ncc2c1NC(=O)CC2c1ccc(F)cc1 (configuration not stated) | 1.96%
80 | Cc1cc(CN(C)C(=O)c2ccc(N(C)C)nc2)no1 | -7.16%
81 | COc1ccc(C2CCCN2C(=O)Nc2ccc(OC)nc2)cc1 (configuration not stated) | -7.84%
82 | COc1cc(N2CC[C@H]3O[C@@H](C(=O)NC4CCCC4)CC[C@H]32)ncn1 | -9.02%
